Data published in US20240130690A1, “NON-INVASIVE DETERMINATION OF A PHY[…] OF INTEREST IN A SUBJECT FROM SPECTRAL DATA PROCESSED USING A TRAINED MACHINE LEARNING MODEL” (ISBRG CORP., priority 2021, published 2024).

Key:
[1] = Analyte composition of a subject after cannabis consumption (illustrative Table 2); assay type: in vivo, human; conditions: simplified data set to exemplify the method; for Analyte level, intoxicated state: 1 hr after consumption; for Analyte level, post-intoxicated state: 36 hr after consumption
Text: For example, which is not to be considered limiting, in a THC induced intoxicated sate, a subject may comprise the analyte composition presented in Table 1. It is to be understood that this table presents a simplified data set to exemplify the method described herein. Other analytes, which may include known analytes or ghost analytes, are indicated as analytes A, B . . . C; A′, B′, . . . C′; A″, B″ . . . C″. These other analytes may increase or decrease in response to, or that are correlated with, the physiological condition and they may be included in this analysis.
In this example, the result may be considered positive for a THC-induced intoxicated state if the Index is greater than a preset value which is determined based on an analysis of the analytes determined in subjects who were exposed to a control treatment, or a range of THC under controlled conditions, for example an Index value of (2+A)/(C+ . . . +C) may be an indication of a positive result for the state of THC-induced intoxication.

[2] = cited from earlier work

| Structure (SMILES) | Analyte level, intoxicated state [1] [ng/mL] | Analyte level, post-intoxicated state [1] [ng/mL] | residual THC in serum ([2]; chronic users of marijuana, detected for 24 to 48 hours or longer, serum) [ng/mL] | residual THC in whole blood ([2]; chronic users of marijuana, detected for 24 to 48 hours or longer, whole blood) [ng/mL] | time of THC peak after inhaling ([2]; smoked marijuana) | THC level remaining ([2]; smoked marijuana, for 8 hours or more) [ng/mL] |
| --- | --- | --- | --- | --- | --- | --- |
| CCCCCc1cc(O)c2c(c1)OC(C)(C)C1CCC(CO)=CC21 (stereo not shown) [11-OH-THC, 11-hydroxy THC] | 5 | 2 | – | – | – | – |
| CCCCCc1cc(O)c2c(c1)OC(C)(C)[C@@H]1CCC(C)=C[C@@H]21 [THC, delta-9-tetrahydrocannabinol] | 78 | 8 | 1.0 to 6.4 | 0.5 to 3.2 | first few minutes | 1 to 2 |
| CCCCCc1cc(O)c2c(c1)OC(C)(C)[C@@H]1CCC(C(=O)O)=C[C@@H]21 [THC-COOH, 11-nor-9-carboxy-THC] | 5 | 11 | – | – | – | – |
